Experimental data as given in ChEMBL document CHEMBL1149977, “Synthesis of 1-(2-aminopropyl)benzimidazoles, structurally related to the TIBO derivative R82150, with activity against human immunodeficiency virus” (Bioorg Med Chem Lett, 1993).

Columns and labels:
[1] = target: Human immunodeficiency virus type 1 reverse transcriptase (Human immunodeficiency virus 1) (UniProt Q72547); assay: Tested for the inhibition of HIV-1 reverse transcriptase at a concentration of 10 ug/mL using a ribosomal RNA template
[2] = system: CEM-SS; assay: Tested for the cytotoxicity against CEM-SS cells (determined by the inhibition of [3H]-thymidine uptake); assay type: functional; conditions: Homo sapiens
[3] = target: Human immunodeficiency virus type 1 reverse transcriptase (Human immunodeficiency virus 1) (UniProt Q72547); assay: Tested for the inhibition of HIV-1 reverse transcriptase at a concentration of 100 ug/mL using a ribosomal RNA template
[4] = system: CEM-SS; assay: Tested for the inhibition of HIV-1 in CEM-SS cells measured using Syncytial assay; assay type: functional, cell-based; conditions: Homo sapiens
[5] = target: Human immunodeficiency virus type 1 reverse transcriptase (Human immunodeficiency virus 1, UniProt Q72547); assay: Tested for the inhibition of HIV-1 reverse transcriptase using a ribosomal RNA template
[6] = Selectivity index was determined by the ratio of CC50 to IC50; assay type: functional

| SMILES | inhibition [1] | CC50 [2] | inhibition [3] | IC50 [4] | IC50 [5] | Selectivity index [6] |
| --- | --- | --- | --- | --- | --- | --- |
| C=CCNC(C)Cn1c(S)nc2ccccc21 (stereo not drawn) | 4.5% | > 100 µM | 29% | 28 µM |  |  |
| CC(C)=CCN1Cc2cc(Cl)cc3[nH]c(=S)n(c23)C[C@@H]1C |  | 35 µM |  | 0.055 µM | 0.0155 µM |  |
| CC(Cn1c(S)nc2ccccc21)NCc1ccccc1 (stereo not drawn) | 17% | 82 µM | 36% | 4.3 µM |  | 19 |
| CC(C)=CCN1Cc2cccc3[nH]c(=S)n(c23)C[C@@H]1C |  | 79 µM |  | 0.026 µM |  |  |
| CC(C)=CCN(C)C(C)Cn1c(S)nc2ccccc21 (stereo not drawn) | 19% | > 100 µM | 34% | 14 µM |  |  |
| CC(C)=CCNC(C)Cn1c(S)nc2ccccc21 (stereo not drawn) | 19% | 81 µM | 46% | 23 µM |  |  |
| CC(Cn1c(S)nc2ccccc21)N(C)Cc1ccccc1 (stereo not drawn) | 13% | 79 µM | 31% | 20 µM |  |  |
| C=CCN(C)C(C)Cn1c(S)nc2ccccc21 (stereo not drawn) |  | > 100 µM |  | 23 µM |  |  |
